Our source for the IC50 values is patent US8367681B2, “Pyrazolopyrimidines and related heterocycles as kinase inhibitors” (Cylene Pharmaceuticals, Inc., priority 2009, dated 2013).

For test [1], the target named is T1, recombinant human CK2 (Homo sapiens, UniProt P68400).
T1 construct: purchased Upstate
As to the kind of experiment: CK2 assay, cell-free, 33P-ATP filter plate. Format: biochemical. As to the method:
Modulatory activity of compounds described herein was assessed in vitro in cell-free CK2 assays by the following method.
Test compounds in aqueous solution were added at a volume of 10 microliters, to a reaction mixture comprising 10 microliters Assay Dilution Buffer (ADB; 20 mM MOPS, pH 7.2, 25 mM beta-glycerolphosphate, 5 mM EGTA, 1 mM sodium orthovanadate and 1 mM dithiothreitol), 10 microliters of substrate peptide (RRRDDDSDDD SEQ ID NO.: 4, dissolved in ADB at a concentration of 1 mM), 10 microliters of recombinant human CK2 (25 ng dissolved in ADB; Upstate). Reactions were initiated by the addition of 10 microliters of ATP Solution (90% 75 mM MgCl2, 75 micromolar ATP dissolved in ADB; 10% [γ-^33P]ATP (stock 1 mCi/100 μl; 3000 Ci/mmol (Perkin Elmer) and maintained for 10 minutes at 30 degrees C. The reactions were quenched with 100 microliters of 0.75% phosphoric acid, then transferred to and filtered through a phosphocellulose filter plate (Millipore). After washing each well 5 times with 0.75% phosphoric acid, the plate was dried under vacuum for 5 min and, following the addition of 15 ul of scintillation fluid to each well, the residual radioactivity was measured using a Wallac luminescence counter.

Test [2] concerns PC-3 human prostatic cancer cells. The experiment in a line: Alamar Blue (AB) cell proliferation assay, PC3. The test is classed as cell-based. The conditions noted are these: PC-3, 96 h, four days with compound. As for the experimental part: (§1) A representative cell-proliferation assay protocol using Alamar Blue dye (stored at 4° C., use 20 ul per well) is described hereafter.
(§2) 96-well Plate Setup and Compound Treatment • a. Split and trypsinize cells. • b. Count cells using hemocytometer. • c. Plate 4,000-5,000 cells per well in 100 μl of medium and seed into a 96-well plate according to the following plate layout. Add cell culture medium only to wells B10 to B12. Wells B1 to B9 have cells but no compound added.
(§3) • d. Add 100 μl of 2× drug dilution to each well in a concentration shown in the plate layout above. At the same time, add 100 μl of media into the control wells (wells B10 to B12). Total volume is 200 μl/well. • e. Incubate four (4) days at 37° C., 5% CO2 in a humidified incubator. • f. Add 20 μl Alamar Blue reagent to each well. • g. Incubate for four (4) hours at 37° C., 5% CO2 in a humidified incubator. • h. Record fluorescence at an excitation wavelength of 544 nm and emission wavelength of 590 nm using a microplate reader.
(§4) In the assays, cells are cultured with a test compound for approximately four days, the dye is then added to the cells and fluorescence of […] dye is detected after approximately four hours. Different types of cells can be utilized in the assays (e.g., HCT-116 human colorectal carcinoma cells, PC-3 human prostatic cancer cells, MDA-MB231 human breast cancer cells, K-562 human chronic myelogenous leukemia (CML) cells, MiaPaca human pancreatic carcinoma cells, MV-4 human acute myeloid leukemia cells, and BxPC3 human pancreatic adenocarcinoma cells).
A general note: Resazurin is reduced to fluorescent resorufin, in cell work by metabolically active cells.

The target of test [3] is recombinant PIM-1 (Homo sapiens, UniProt P11309). As to the kind of experiment: PIM-1 kinase assay, 33P-ATP filter plate. Format: biochemical. The conditions noted are these: recombinant PIM-1, 15 uM ATP; read-out: PIM1: IC50. As to the method:
The following procedure was used to assay the PIM-1 kinase activity of compounds of the invention. Other methods for assaying PIM-1 and other PIM kinases, as well as methods to assay for activity against the various kinases in FIG. 1, are known in the art.
In a final reaction volume of 50 ul, recombinant PIM-1 (1 ng) was incubated with 12 mM MOPS pH 7.0, 0.4 mM EDTA, glycerol 1%, brij 35 0.002%, 2- mercaptoethanol 0.02%, BSA 0.2 mg/ml, 100 uM KKRNRTLTK SEQ ID NO.: 5, 10 mM MgAcetate, 15 uM ATP, [γ-^33P-ATP] (specific activity approx. […]), DMSO 4% and test inhibitor compound at the required concentration. The reaction was initiated by the addition of the Magnesium ATP mixture. After 40 min incubation at 23° C., the reactions were quenched by the addition of 100 ul 0.75% Phosphoric acid, and the labeled peptide collected by filtration through a phosphocellulose filter plate. The plate was washed 4 times with 0.075% phosphoric acid (100 ul per well) and then, after the addition of scintillation fluid (20 ul per well), the counts were measured by a scintillation counter.

The subject of test [4] is K-562 human chronic myelogenous leukemia (CML) cells. As to the kind of experiment: Alamar Blue (AB) cell proliferation assay, K-562. The test is classed as cell-based. The settings on record: K562, 96 h, K-562 cells, four days with compound. As to the method: as §1, §2, §3, §4
Test [5] relates to MDA-MB231 human breast cancer cells. As to the kind of experiment: Alamar Blue (AB) cell proliferation assay, MDAMB231. Format: cell-based. The conditions noted are these: MDA-MB-231, 96 h, four days with compound. As for the experimental part: as §1, §2, §3, §4
Test [6] concerns MV-4 human acute myeloid leukemia cells. The experiment in a line: Alamar Blue (AB) cell proliferation assay, MV-4-11. Format: cell-based. The settings on record: MV4-11, 96 h, MV-4-11 cells, four days with compound. As to the method:
as §1, §2, §3, §4

Test [7] concerns MiaPaca human pancreatic carcinoma cells. As to the kind of experiment: Alamar Blue (AB) cell proliferation assay, MiaPaCa. Format: cell-based. The settings on record: MIA PaCa-2, 96 h, four days with compound. As for the experimental part:
as §1, §2, §3, §4

Test [8] has as its system P21_MDAMB231. The experiment in a line: P21_MDAMB231 cellular assay. The test is classed as cell-based. The conditions noted are these: Homo sapiens, MDA-MB-231; MDAMB231 cells.
In test [9] the test system is P21_BxPC3. The experiment in a line: P21_BxPC3 cellular assay. Format: cell-based. The conditions noted are these: Homo sapiens, BXPC-3; BxPC3 cells.

pIC50: −log10 of the molar value.

T1 sequence (P68400 whole entry): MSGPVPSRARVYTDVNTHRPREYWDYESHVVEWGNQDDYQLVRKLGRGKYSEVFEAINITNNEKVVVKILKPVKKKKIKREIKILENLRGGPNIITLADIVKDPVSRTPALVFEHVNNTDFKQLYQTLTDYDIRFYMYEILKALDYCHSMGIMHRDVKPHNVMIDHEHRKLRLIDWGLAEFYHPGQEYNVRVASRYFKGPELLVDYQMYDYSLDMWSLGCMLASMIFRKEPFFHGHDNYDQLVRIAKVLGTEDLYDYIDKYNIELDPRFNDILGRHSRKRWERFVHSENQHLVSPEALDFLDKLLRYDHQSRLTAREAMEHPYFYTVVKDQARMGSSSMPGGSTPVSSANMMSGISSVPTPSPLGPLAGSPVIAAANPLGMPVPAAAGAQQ
T1 sequence (P67870 whole entry partner): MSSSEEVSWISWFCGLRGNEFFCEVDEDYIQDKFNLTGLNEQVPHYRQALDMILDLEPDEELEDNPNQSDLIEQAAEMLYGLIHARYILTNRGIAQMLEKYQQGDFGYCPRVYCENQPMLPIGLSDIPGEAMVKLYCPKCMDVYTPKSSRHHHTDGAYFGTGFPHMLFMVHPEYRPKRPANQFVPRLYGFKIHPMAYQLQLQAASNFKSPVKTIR
recombinant PIM-1, sequence (P11309 whole entry): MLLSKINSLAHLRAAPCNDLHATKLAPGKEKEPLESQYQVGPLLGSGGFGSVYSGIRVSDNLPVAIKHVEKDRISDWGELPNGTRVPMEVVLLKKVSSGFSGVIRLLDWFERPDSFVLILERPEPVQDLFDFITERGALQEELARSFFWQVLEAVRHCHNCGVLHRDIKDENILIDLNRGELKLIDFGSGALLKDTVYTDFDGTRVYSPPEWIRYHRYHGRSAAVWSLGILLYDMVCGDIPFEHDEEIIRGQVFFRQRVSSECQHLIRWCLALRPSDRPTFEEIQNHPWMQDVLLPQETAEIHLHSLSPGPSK

As usually defined, the pIC50 is the negative decadic logarithm of the IC50, by convention in mol/L. Regarding `CC(C)Oc1cccc(Nc2ccn3ncc(/C=C4\NC(=O)NC4=O)c3n2)c1`, the pIC50 is 7.64 in test [1], 5.01 in [2] and 5.98 in test [3].

Regarding `CC(C)(C)c1cccc(Nc2ccn3ncc(/C=C4/NC(=O)NC4=O)c3n2)c1`, the results for the pIC50 in [1] and in test [3] were 6.68 and 6.05, respectively.

In the case of `COC(=O)c1cccc(-c2ccn3ncc(/C=C4/SC(=S)NC4=O)c3n2)c1`, the negative logarithm of the IC50 (pIC50) in test [1] was 7.89; in test [4], less than 5.00; in [2] it was 5.41; in test [5] it was 5.06; in [3], 7.68; in test [6] it was 7.96. Further, in [7], the pIC50 is less than 5.00.

Consider `O=C1NC(=O)/C(=C/c2cnn3ccc(-c4ccccc4F)nc23)S1`, for which the pIC50 in test [1] was 7.39; in test [2], less than 5.00; in test [3], 6.62.

Consider `CCN(CC)Cc1cccc(Nc2ccn3ncc(/C=C4\NC(=O)NC4=O)c3n2)c1`, for which the pIC50 in test [1] was 6.34; in test [3], 6.43.

Regarding `O=C1NC(=S)S/C1=C\c1cnn2ccc(-c3ccccc3F)nc12`, the pIC50 in test [1] was 7.82; in test [2], less than 5.00; in [3] it was 7.60.

For `O=C1NC(=O)/C(=C/c2cnn3ccc(Nc4ccc(Cl)cc4)nc23)N1`, the pIC50 in test [1] is 7.70; in test [3], 6.71.

In the case of `O=C1NC(=O)/C(=C/c2cnn3ccc(-c4ccccc4F)nc23)N1`, the pIC50 in test [1] is 6.75; in [3], 5.52.

With `O=C1NC(=O)/C(=C/c2cnn3ccc(Nc4ccc(Cl)cc4)nc23)S1`, the pIC50 in test [1] is 8.15.

`Cc1nccn1-c1cccc(Nc2ccn3ncc(/C=C4\SC(=O)NC4=O)c3n2)c1`: the pIC50 in [1] is 7.66; in [4], less than 5.00; in [5], less than 5.00; in test [3], 8.40; in test [6], 5.27; in test [7] it was less than 5.00.

Take `COC(=O)c1cccc(-c2ccn3ncc(/C=C4/SC(=O)NC4=O)c3n2)c1`: the pIC50 was 7.10 in test [1]; 7.29 in test [4]; 5.50 in test [8]; 5.25 in test [9]; less than 4.52 in [2]; less than 5.00 in test [5]. For the same molecule, the results for the pIC50 in test [3] and in test [7] were 7.04 and less than 5.00, respectively.

Take `CN1CCCN(c2ccn3ncc(/C=C4\SC(=O)NC4=O)c3n2)CC1`: the pIC50 in [1] is 6.89; in [3] it was 6.90.

For the molecule `O=C1NC(=O)/C(=C\c2cnn3ccc(Nc4cccc(Cl)c4)nc23)S1`, the pIC50 is 8.52 in [1]; 6.88 in test [4]; 6.17 in [8]; 6.35 in [9]; 5.52 in test [2]; 6.96 in test [5]. For the same molecule, the pIC50 in test [3] is 7.28; in [6] it was 6.57; in [7], 6.55.

For the molecule `O=C1NC(=S)S/C1=C/c1cnn2ccc(Nc3cccc(Cl)c3)nc12`, the pIC50 is 8.22 in test [1]; 6.82 in [4]; 6.52 in test [8]; 5.58 in [9]; 6.07 in [2]; less than 5.00 in test [5]. Moreover, the values for the pIC50 in test [3], in test [6] and in test [7] were 7.74, less than 7.52 and less than 5.00, respectively.

As for `O=C1NC(=O)/C(=C\c2cnn3ccc(Nc4cccc(Cl)c4)nc23)N1`, the pIC50 is 8.05 in test [1]; 6.82 in [4]; 7.00 in [8]; 6.27 in test [9]; 6.84 in test [2]; 6.11 in [5]. In addition, the pIC50 was 6.37 in test [3], less than 7.52 in test [6] and 6.97 in test [7].

`CC(C)(C)c1cccc(Nc2ccn3ncc(/C=C4/SC(=O)NC4=O)c3n2)c1`: the pIC50 in test [1] was 7.10; in test [3], 6.97.

As to `Nc1ccn2ncc(/C=C3\NC(=O)NC3=O)c2n1`, the pIC50 was less than 5.30 in test [1] and 6.80 in [3].

In the case of `O=C1NC(=O)/C(=C/c2cnn3ccc(NCCF)nc23)N1`, the pIC50 in test [1] is 5.67; in test [3], 5.62.

On to `O=C1NC(=O)/C(=C\c2cnn3ccc(-c4cccc(C(=O)O)c4)nc23)S1`, for which the pIC50 in [1] is 8.05; in [4] it was less than 5.00; in test [2], less than 4.52; in test [5], less than 5.00; in [3], 6.16; in [6], less than 6.00. Also, the pIC50 in test [7] was less than 5.00.

In the case of `CC(C)CNc1ccn2ncc(/C=C3\NC(=O)NC3=O)c2n1`, the values for the pIC50 in [1], in test [2] and in [3] were 7.46, 5.18 and 6.46, respectively.

Regarding `CN1C(=O)NC(=O)/C1=C/c1cnn2ccc(Nc3cccc(Cl)c3)nc12`, the pIC50 was 6.43 in test [1] and 6.62 in test [3].

With `CN1CCN(c2cccc(Nc3ccn4ncc(/C=C5\NC(=O)NC5=O)c4n3)c2)CC1`, the values for the pIC50 in test [1] and in test [3] were 6.61 and 6.29, respectively.

Take `O=C1NC(=O)/C(=C\c2cnn3ccc(Nc4cccc(Cn5ccnc5)c4)nc23)N1`: the pIC50 is 6.92 in [1] and 7.21 in [3].

With `CN(C)CCOc1ccc(Nc2ccn3ncc(/C=C4\NC(=O)NC4=O)c3n2)cc1`, the pIC50 in test [1] was 7.24; in test [3] it was 6.37.

For `O=C1NC(=O)/C(=C/c2cnn3ccc(N4CCCCC4)nc23)N1`, the pIC50 in test [1] is 6.84; in test [3], 6.37.

In the case of `CN1CCCN(c2ccn3ncc(/C=C4\NC(=O)NC4=O)c3n2)CC1`, the pIC50 was 5.71 in [1] and 5.45 in [3].

As to `CC(C)Nc1ccn2ncc(/C=C3\NC(=O)NC3=O)c2n1`, the pIC50 was 6.24 in test [1] and 5.80 in test [3].

For the molecule `O=C1NC(=O)/C(=C/c2cnn3ccc(Nc4cccc(OCCN5CCOCC5)c4)nc23)N1`, the pIC50 in test [1] was 6.52; in test [3], 5.90.

On to `CN1CCN(c2ccc(Nc3ccn4ncc(/C=C5/NC(=O)NC5=O)c4n3)cc2)CC1`, for which the results for the pIC50 in [1] and in [3] were 7.24 and 6.27, respectively.
